Test results from paper PMC11177969, “Comprehensive Analyses of the Effects of the Small-Molecule Inhibitor of the UHM Domain in the Splicing Factor U2AF1 in Leukemia Cells” (Research Square, 2024).
Like-named read-outs stand apart in the source and are kept apart here.

Experiments:
SPF45-UHM = biological target: T1, SPF45-UHM (Homo sapiens, UniProt Q96I25); experiment: HTRF assay; type: binding; conditions: Fig. 2C; SD of 2 independent experiments in parentheses
T1 sequence (Q96I25 306-385 limits assumed): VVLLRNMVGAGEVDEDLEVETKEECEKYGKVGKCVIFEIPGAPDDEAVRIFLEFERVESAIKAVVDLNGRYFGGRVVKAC
Text: (§1) To determine the selectivity of SF1–8 against other homologous UHM domains, we measured the IC50 values of SF1–8 to RBM39-UHM, SPF45-UHM and PUF60-UHM using the HTRF assay.[42] […] In the chemical synthesis (Scheme S1), methylation on the pyrazole group in SF1–8 can occur at the N8 or N9 position (Fig.2C). Although the NMR spectra can be used to infer the methyl group position on the pyrazole, we determined the crystal structure of a SF1–8 precursor to clearly confirm the methyl group is at N9 in SF1–8 (Fig.2C). To further probe the interaction of SF1–8 with U2AF1-UHM, we synthesized SF1–8 analogs and developed the structure activity relationship (SAR) (Fig.2C). […] A longer alkyl group was tolerated at the N8 position but not at the N9 position. […] The crystal structure of a 7c precursor experimentally determined from SCXRD again confirmed the location of the propyl group (Fig. 2C).

PUF60-UHM = biological target: T2, PUF60-UHM (Homo sapiens, UniProt Q9UHX1); experiment: HTRF assay; type: binding; conditions: Fig. 2C
T2 sequence (Q9UHX1 462-549 limits assumed): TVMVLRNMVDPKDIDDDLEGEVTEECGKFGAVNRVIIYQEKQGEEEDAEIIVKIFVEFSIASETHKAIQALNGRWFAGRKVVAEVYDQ
Text: as §1

RBM39-UHM = biological target: T3, RBM39-UHM (Homo sapiens, UniProt Q14498); experiment: HTRF assay; type: binding; conditions: Fig. 2C; SD of 2 independent experiments in parentheses
T3 sequence (Q14498 445-508 limits assumed): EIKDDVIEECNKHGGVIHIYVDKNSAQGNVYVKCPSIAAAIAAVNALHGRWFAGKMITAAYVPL
Text: as §1

U2AF1-UHM [1] = biological target: T4, U2AF1-UHM (Homo sapiens, UniProt Q01081); experiment: HTRF assay, inhibition of binding between U2AF1-UHM and U2AF2-ULM
T4 construct: we screened the CCG fragment library from University of Michigan against the U2AF1-UHM domain using the Thermal Shift Assay (TSA)
T4 sequence (Q01081 65-147 limits assumed): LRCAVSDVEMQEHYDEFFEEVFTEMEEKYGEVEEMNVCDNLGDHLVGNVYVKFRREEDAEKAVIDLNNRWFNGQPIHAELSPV
Text: TSA data provided no information of the binding site in U2AF1-UHM. To identify the binding sites of both hits to U2AF1-UHM, we synthesized CCG211578 (named Hit1/SF1–8) and CCG210084 (named Hit2/9 in Fig.2C) and asked if they inhibited the binding between U2AF1-UHM and U2AF2-ULM using our previously developed HTRF assay.[42] […] The IC50 values of SF1–8 and Hit2 correlated with the ΔTm values observed in TSA. We have reported that the conserved Trp binding site in U2AF1-UHM dominated the binding affinity between U2AF2-ULM and U2AF1-UH.[42]

U2AF1-UHM [2] = biological target: T4, U2AF1-UHM; experiment: Thermal Shift Assay (TSA) fragment library screening; type: binding; conditions: confirmatory screening in triplicate, read-out: ΔTm (melting temperature change) of U2AF1-UHM
Method: To develop a different targeting strategy, we assessed potential tractable binding sites in U2AF1 using computational analysis and determined that the UHM domain of U2AF1 was for identifying hits (Fig.S1).[42] To discover hits, we screened the CCG fragment library from University of Michigan against the U2AF1-UHM domain using the Thermal Shift Assay (TSA). An initial single concentration screening at 200 μM led to identify 149 compounds that gave positive shifts of the melting temperature (ΔTm) in U2AF1-UHM. These compounds were subject to a secondary confirmatory screening in triplicate at 200 μM.

[3] = tested on: bone marrow cells from an MDS specimen that harbored U2AF1^S34F; experiment: Toxicity in primary MDS cells; type: cell-based; conditions: Homo sapiens, Bone marrow cell, U2AF1^S34F VAF 41%, read-out: viable cells
Text: (§2) Previous studies that introduced U2AF1^S34F in lung epithelial (HBEC3kt)[43], leukemia (K562)[38],[44],[45], and iPSC[37] cell lines have validated the function of U2AF1^S34F in these engineered cell lines while mutation of Q157 is less studied. We therefore focused our study on U2AF1^S34F and examined the effects of SF1–8 on a panel of leukemia cell lines including K562, U937, HL60 with isogenic overexpression of U2AF1^wt or U2AF1^S34F, K562 with isogenic overexpression of SRSF2^wt or SRSF2^P95H, and K562 with Crispr/Cas9 edited SF3B1^wt or SF3B1^E700K (denoted as K562-U2AF1^wt, K562-U2AF1^S34F, U937-U2AF1^wt, U937-U2AF1^S34F, HL60-U2AF1^wt, HL60-U2AF1^S34F, K562-SRSF2^wt, K562-SRSF2^P95H, K562-SF3B1^wt, K562-SF3B1^E700K). […] The data obtained from the engineered leukemia cell lines prompted us to query the activity of SF1–8 in primary MDS cells.
(§3) Figure 3. Growth inhibition activities of SF1–8 in U2AF1, SF3B1, SRSF2 mutant, wild-type leukemia cell lines (A) Dose dependent growth inhibition of U2AF1^S34F, SF3B1^E700K, SRSF2^P95H mutant and isogenic wild-type cell lines by the treatment of SF1–8. (B) Titration of SF1–8 against K562-U2AF1^wt, K562-U2AF1^S34F, MV4–11, HL60 cells using the CellTiter-Glo assay. (C) Toxicity of SF1–8 in human primary MDS cells (U2AF1^S34F) and healthy bone marrow cells.

HL-60 = experiment: Growth inhibition titration (CellTiter-Glo); type: cell-based; conditions: Homo sapiens, native cell line carrying U2AF1^wt
Text: as §2, §3

MV-4–11 = experiment: Growth inhibition titration (CellTiter-Glo); type: cell-based; conditions: Homo sapiens, MV4-11; native cell line carrying U2AF1^wt
Text: as §2, §3

healthy control cells = experiment: Toxicity in healthy control cells; type: cell-based, human; conditions: as much as 10 μM
Text: as §2, §3

K562-U2AF1^S34F = experiment: Growth inhibition / cell viability (CellTiter-Glo); type: cell-based
Text: as §2, §3

K562-U2AF1^wt = experiment: Growth inhibition / cell viability (CellTiter-Glo); type: cell-based
Text: as §2, §3

K562-SRSF2^wt = experiment: Dose dependent growth inhibition; type: cell-based; conditions: Fig. 3A
Text: as §2, §3

U937-U2AF1^S34F = experiment: Dose dependent growth inhibition; type: cell-based; conditions: Fig. 3A
Text: as §2, §3

K562-SF3B1^E700K = experiment: Dose dependent growth inhibition; type: cell-based; conditions: Fig. 3A
Text: as §2, §3

K562-SRSF2^P95H = experiment: Dose dependent growth inhibition; type: cell-based; conditions: Fig. 3A
Text: as §2, §3

HL60-U2AF1^S34F = experiment: Dose dependent growth inhibition; type: cell-based; conditions: Fig. 3A
Text: as §2, §3

U937-U2AF1^wt = experiment: Dose dependent growth inhibition; type: cell-based; conditions: Fig. 3A
Text: as §2, §3

K562-SF3B1^wt = experiment: Dose dependent growth inhibition; type: cell-based; conditions: Fig. 3A
Text: as §2, §3

HL60-U2AF1^wt = experiment: Dose dependent growth inhibition; type: cell-based; conditions: Fig. 3A
Text: as §2, §3

K562-U2AF1^S34F cells = experiment: Western blots of select genes; type: cell-based; conditions: western blot
Text: To understand the underlying mechanisms of the differential effects of SF1–8 on K562-U2AF1^S34F, we performed an RNA-seq experiment on K562-U2AF1^S34F cells treated with SF1–8 and control (Fig.4). […] When the 99 genes were mapped to KEGG pathways, the top six enriched pathways were protein digestion and absorption, extracellular matrix-receptor interaction, focal adhesion, PI3K-Akt signaling pathway, human papillomavirus infection, and AGE-RAGE signaling pathway (Fig.S2). To determine if the protein levels of these genes were affected by their mRNA changes, we performed the western blots of select genes. […] Because of the role U2AF1 in RNA splicing, we asked if analysis of the isoform pattern changes may provide insight to explain the different observations between RNA-seq and western blot data. In the transcript analysis, we identified low FPKM numbers of three BCL2 transcripts (Fig.S3) that explained the relatively low BCL2 protein levels in K562. A significant increase of the BCL-2b transcript was also found. […] Besides BCL2, BCLXL (encoded by BCL2L1) and MCL1 have isoforms (BCL-XS and MCL-1S) that had apoptotic functions. K562 cells expressed only the anti-apoptotic MCL1 transcript and the expression was not affected by SF1–8 (not shown). […] Another frequently studied gene involved in apoptosis regulation is survivin.[48],[49]
Figure 4. RNA-seq experiment of K562-U2AF1^S34F cells treated with SF1–8 and the western blot of select genes. […] (C) Western blots of c-CBL, ATF3, and BCL-2 in K562-U2AF1^wt, K562-U2AF1^S34F treated with SF1–8. (D) Heatmap of top 99 differentially regulated genes in K562-U2AF1^S34F treated with SF1–8.

[4] = tested on: bone marrow cells of healthy control; experiment: Colony formation assay; type: cell-based, human; conditions: 1 to 20 μM
Text: as §2

[5] = Fig. 2C, SD of 2 independent experiments in parentheses, read-out: IC50 U2AF1

CCC1(c2cc(O)n(C)n2)CCNCC1 [7e]
IC50 (SPF45-UHM): 519 µM | IC50 (PUF60-UHM): > 1000 µM | IC50 (RBM39-UHM): > 1000 µM | IC50 (U2AF1-UHM [1]; [5]): 383 µM

Cn1nc(C2(C)CCNCC2)cc1O [SF1–8]
ΔTm at 200 µM (U2AF1-UHM [2]): 2.02 °C | IC50 (SPF45-UHM): 748 µM | IC50 (PUF60-UHM): 523 µM | IC50 (RBM39-UHM): 221 µM | viability at 10 µM [3]: 20% | IC50 (HL-60): > 100 µM | IC50 (MV-4–11): > 100 µM | IC50 (U2AF1-UHM [1]; [5]): 59.33 ± 0.02 µM | selectivity against three other UHM domains (U2AF1-UHM [1]; U2AF1-UHM vs RBM39-UHM, SPF45-UHM, PUF60-UHM): 4–12 fold | IC50 (U2AF1-UHM [1]; representative titration curves, Fig. 2B, read-out: IC50 against U2AF1-UHM): 59.3 µM | effect on viable cells (healthy control cells): did not significantly decrease 20% of viable cells | effect on cell viability (K562-U2AF1^S34F; Fig. 3A): selectively decreased the viability | IC50 (K562-U2AF1^S34F; dose titration, CellTiter-Glo): 1.98 µM | effect on cell viability (K562-U2AF1^wt; Fig. 3A): but not their isogenic wild-type cells | activity in dose titration (K562-U2AF1^wt; dose titration, CellTiter-Glo): no activity | effect on cell viability (K562-SRSF2^wt): no activity | effect on cell viability (U937-U2AF1^S34F): no activity | effect on cell viability (K562-SF3B1^E700K): selectively decreased the viability | effect on cell viability (K562-SRSF2^P95H): no activity | effect on cell viability (HL60-U2AF1^S34F): reduced cell viability | effect on cell viability (U937-U2AF1^wt): no activity | effect on cell viability (K562-SF3B1^wt): but not their isogenic wild-type cells | effect on cell viability (HL60-U2AF1^wt): reduced cell viability | ATF-3 protein level (K562-U2AF1^S34F cells): increase of ATF-3 was confirmed | BCL2 protein level (K562-U2AF1^S34F cells): decreased BCL2 | c-CBL protein level (K562-U2AF1^S34F cells): no change of c-CBL | toxicity in colony formation assay [4]: no significant toxicity

CC(C)n1nc(O)cc1C1(C)CCNCC1 [8d]
IC50 (SPF45-UHM): 354 µM | IC50 (PUF60-UHM): 459 µM | IC50 (RBM39-UHM): 395 µM | IC50 (U2AF1-UHM [1]; [5]): 71.6 µM

CCCn1nc(C2(C)CCNCC2)cc1O [7c]
IC50 (SPF45-UHM): 62.4 µM | IC50 (PUF60-UHM): 541 µM | IC50 (RBM39-UHM): 310 µM | IC50 (U2AF1-UHM [1]; [5]): 53.1 µM

CCn1nc(O)cc1C1(C)CCNCC1 [8b]
IC50 (SPF45-UHM): 799 µM | IC50 (PUF60-UHM): > 1000 µM | IC50 (RBM39-UHM): > 1000 µM | IC50 (U2AF1-UHM [1]; [5]): 232 µM

CCC1(c2cc(O)nn2C)CCNCC1 [8e]
IC50 (SPF45-UHM): 179 µM | IC50 (PUF60-UHM): 592 µM | IC50 (RBM39-UHM): 335 µM | IC50 (U2AF1-UHM [1]; [5]): 46.5 µM
